Test results published in PubChem BioAssay (NCI).
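Growth conditions: 96-well plates. Treatment: test compound, 48 hours, 5 concentrations. Analysis: linear interpolation between bracketing concentrations; unreached endpoints set to highest concentration. GI50: concentration for 50% inhibition of growth. The concentration for full growth arrest is given as TGI.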

What was measured:
Assay in all cases: NCI anticancer screen, dose series, 48 h; in the data active means GI50 below about 0.43 µM; inactive means the rest
786-0 renal = test system: 786-0 renal
A498 renal = test system: A498 renal
A549 NSCLC = test system: A549 NSCLC
ACHN renal = test system: ACHN renal
BT-549 breast = test system: BT-549 breast
CAKI-1 renal = test system: CAKI-1 renal
CCRF-CEM leukemia = test system: CCRF-CEM leukemia
COLO 205 colon = test system: COLO 205 colon
DU-145 prostate = test system: DU-145 prostate
EKVX NSCLC = test system: EKVX NSCLC
HCC-2998 colon = test system: HCC-2998 colon
HCT-116 colon = test system: HCT-116 colon
HCT-15 colon = test system: HCT-15 colon
HL-60(TB) leukemia = test system: HL-60(TB) leukemia
HOP-62 NSCLC = test system: HOP-62 NSCLC
HOP-92 NSCLC = test system: HOP-92 NSCLC
HS 578T breast = test system: HS 578T breast
HT29 colon = test system: HT29 colon
IGROV1 ovarian = test system: IGROV1 ovarian
K-562 leukemia = test system: K-562 leukemia
KM12 colon = test system: KM12 colon
M14 melanoma = test system: M14 melanoma
MCF7 breast = test system: MCF7 breast
MDA-MB-231 breast = test system: MDA-MB-231 breast
MDA-MB-435 = test system: MDA-MB-435
MOLT-4 leukemia = test system: MOLT-4 leukemia
NCI-H226 lung = test system: NCI-H226 lung
NCI-H23 lung = test system: NCI-H23 lung
NCI-H460 lung = test system: NCI-H460 lung
NCI-H522 lung = test system: NCI-H522 lung
NCI/ADR-RES ovarian = test system: NCI/ADR-RES ovarian
OVCAR-3 ovarian = test system: OVCAR-3 ovarian
OVCAR-4 ovarian = test system: OVCAR-4 ovarian
OVCAR-5 ovarian = test system: OVCAR-5 ovarian
OVCAR-8 ovarian = test system: OVCAR-8 ovarian
PC-3 prostate = test system: PC-3 prostate
RPMI-8226 leukemia = test system: RPMI-8226 leukemia
RXF 393 renal = test system: RXF 393 renal
SF-268 CNS = test system: SF-268 CNS
SF-295 CNS = test system: SF-295 CNS
SF-539 CNS = test system: SF-539 CNS
SK-MEL-2 melanoma = test system: SK-MEL-2 melanoma
SK-MEL-28 melanoma = test system: SK-MEL-28 melanoma
SK-MEL-5 melanoma = test system: SK-MEL-5 melanoma
SK-OV-3 ovarian = test system: SK-OV-3 ovarian
SN12C renal = test system: SN12C renal
SNB-19 CNS = test system: SNB-19 CNS
SNB-75 CNS = test system: SNB-75 CNS
SR leukemia = test system: SR leukemia
SW-620 colon = test system: SW-620 colon
T-47D breast = test system: T-47D breast
TK-10 renal = test system: TK-10 renal
U251 CNS = test system: U251 CNS
UACC-257 melanoma = test system: UACC-257 melanoma
UACC-62 melanoma = test system: UACC-62 melanoma
UO-31 renal = test system: UO-31 renal
LOX IMVI melanoma = test system: LOX IMVI melanoma
MALME-3M melanoma = test system: MALME-3M melanoma

Cc1ccc(-c2[nH]c(=O)n(C3OC(CO)C(O)C(O)C3O)c(=O)c2C#N)cc1 (configuration not stated)
> 100 µM: TGI (786-0 renal) | TGI (A498 renal) | TGI (A549 NSCLC) | TGI (ACHN renal) | TGI (BT-549 breast) | TGI (CAKI-1 renal) | TGI (CCRF-CEM leukemia) | TGI (COLO 205 colon) | TGI (DU-145 prostate) | TGI (EKVX NSCLC) | TGI (HCC-2998 colon) | TGI (HCT-116 colon) | TGI (HCT-15 colon) | TGI (HL-60(TB) leukemia) | TGI (HOP-62 NSCLC) | TGI (HOP-92 NSCLC) | TGI (HS 578T breast) | TGI (HT29 colon) | TGI (IGROV1 ovarian) | TGI (K-562 leukemia) | TGI (KM12 colon) | TGI (M14 melanoma) | TGI (MCF7 breast) | TGI (MDA-MB-231 breast) | TGI (MDA-MB-435) | TGI (MOLT-4 leukemia) | TGI (NCI-H226 lung) | TGI (NCI-H23 lung) | TGI (NCI-H460 lung) | TGI (NCI-H522 lung) | TGI (NCI/ADR-RES ovarian) | TGI (OVCAR-3 ovarian) | TGI (OVCAR-4 ovarian) | TGI (OVCAR-5 ovarian) | TGI (OVCAR-8 ovarian) | TGI (PC-3 prostate) | TGI (RPMI-8226 leukemia) | TGI (RXF 393 renal) | TGI (SF-268 CNS) | TGI (SF-295 CNS) | TGI (SF-539 CNS) | TGI (SK-MEL-2 melanoma) | TGI (SK-MEL-28 melanoma) | TGI (SK-MEL-5 melanoma) | TGI (SK-OV-3 ovarian) | TGI (SN12C renal) | TGI (SNB-19 CNS) | TGI (SNB-75 CNS) | TGI (SR leukemia) | TGI (SW-620 colon) | TGI (T-47D breast) | TGI (TK-10 renal) | TGI (U251 CNS) | TGI (UACC-257 melanoma) | TGI (UACC-62 melanoma) | TGI (UO-31 renal)

CN(C)c1ccc(S(=O)Nc2ccccc2)cc1 (configuration not stated)
57.5 µM: TGI (MDA-MB-435)
81.6 µM: TGI (UACC-62 melanoma)
62.9 µM: TGI (U251 CNS)
57.1 µM: TGI (KM12 colon)
65.6 µM: TGI (T-47D breast)
92.9 µM: TGI (UACC-257 melanoma)
50.7 µM: TGI (SK-MEL-5 melanoma)
89.1 µM: TGI (SK-MEL-2 melanoma)
> 100 µM: TGI (786-0 renal) | TGI (A549 NSCLC) | TGI (ACHN renal) | TGI (CCRF-CEM leukemia) | TGI (DU-145 prostate) | TGI (EKVX NSCLC) | TGI (HCC-2998 colon) | TGI (HCT-116 colon) | TGI (HCT-15 colon) | TGI (HL-60(TB) leukemia) | TGI (HOP-62 NSCLC) | TGI (HS 578T breast) | TGI (HT29 colon) | TGI (IGROV1 ovarian) | TGI (K-562 leukemia) | TGI (LOX IMVI melanoma) | TGI (M14 melanoma) | TGI (MALME-3M melanoma) | TGI (MCF7 breast) | TGI (MDA-MB-231 breast) | TGI (MOLT-4 leukemia) | TGI (NCI-H226 lung) | TGI (NCI-H23 lung) | TGI (NCI-H460 lung) | TGI (NCI-H522 lung) | TGI (NCI/ADR-RES ovarian) | TGI (OVCAR-3 ovarian) | TGI (OVCAR-4 ovarian) | TGI (OVCAR-5 ovarian) | TGI (OVCAR-8 ovarian) | TGI (RPMI-8226 leukemia) | TGI (SF-268 CNS) | TGI (SF-295 CNS) | TGI (SF-539 CNS) | TGI (SK-MEL-28 melanoma) | TGI (SN12C renal) | TGI (SNB-19 CNS) | TGI (SR leukemia) | TGI (SW-620 colon) | TGI (TK-10 renal) | TGI (UO-31 renal)
28.9 µM: TGI (BT-549 breast)
63.1 µM: TGI (COLO 205 colon)

Cc1cccc(NC(=O)Cn2cnc3sc(C(=O)OC(C)C)c(C)c3c2=O)c1
22.4 µM: TGI (EKVX NSCLC)
inactive: GI50 (786-0 renal) 32.9 µM | GI50 (A498 renal) 16.1 µM | GI50 (A549 NSCLC) 16.4 µM | GI50 (ACHN renal) 9.73 µM | GI50 (BT-549 breast) 8.21 µM | GI50 (CAKI-1 renal) 45.9 µM | GI50 (CCRF-CEM leukemia) > 50 µM | GI50 (COLO 205 colon) > 50 µM | GI50 (DU-145 prostate) 9.33 µM | GI50 (EKVX NSCLC) 7.51 µM | GI50 (HCT-116 colon) 15.6 µM | GI50 (HCT-15 colon) 32.6 µM | GI50 (HL-60(TB) leukemia) > 50 µM | GI50 (HOP-62 NSCLC) 13.7 µM | GI50 (HOP-92 NSCLC) > 50 µM | GI50 (HS 578T breast) 16.5 µM | GI50 (IGROV1 ovarian) 16.3 µM | GI50 (K-562 leukemia) > 50 µM | GI50 (KM12 colon) 30.3 µM | GI50 (LOX IMVI melanoma) 11.2 µM | GI50 (M14 melanoma) > 50 µM | GI50 (MCF7 breast) 38.2 µM | GI50 (MDA-MB-231 breast) 11.2 µM | GI50 (MDA-MB-435) > 50 µM | GI50 (MOLT-4 leukemia) > 50 µM | GI50 (NCI-H460 lung) 25.2 µM | GI50 (NCI-H522 lung) 12.3 µM | GI50 (OVCAR-3 ovarian) 33.4 µM | GI50 (OVCAR-8 ovarian) 17.4 µM | GI50 (PC-3 prostate) > 50 µM | GI50 (RPMI-8226 leukemia) > 50 µM | GI50 (RXF 393 renal) 7.1 µM | GI50 (SF-268 CNS) 18.8 µM | GI50 (SF-295 CNS) > 50 µM | GI50 (SF-539 CNS) 8.77 µM | GI50 (SK-MEL-2 melanoma) 16 µM | GI50 (SK-MEL-28 melanoma) 16.6 µM | GI50 (SK-MEL-5 melanoma) 20.7 µM | GI50 (SK-OV-3 ovarian) 26.8 µM | GI50 (SN12C renal) 7.66 µM | GI50 (SNB-19 CNS) 14.1 µM | GI50 (SNB-75 CNS) 17.5 µM | GI50 (SR leukemia) > 50 µM | GI50 (SW-620 colon) 33.5 µM | GI50 (T-47D breast) > 50 µM | GI50 (TK-10 renal) 16.7 µM | GI50 (U251 CNS) 12.6 µM | GI50 (UACC-257 melanoma) 19 µM | GI50 (UACC-62 melanoma) 8.78 µM | GI50 (UO-31 renal) > 50 µM
31 µM: TGI (U251 CNS)
26.6 µM: TGI (ACHN renal)
22.7 µM: TGI (RXF 393 renal)
35.9 µM: TGI (HOP-62 NSCLC) | TGI (LOX IMVI melanoma)
21.5 µM: TGI (SF-539 CNS)
25.2 µM: TGI (BT-549 breast)
39.5 µM: TGI (MDA-MB-231 breast) | TGI (SNB-75 CNS)
44.6 µM: TGI (NCI-H522 lung)
> 50 µM: TGI (786-0 renal) | TGI (A498 renal) | TGI (A549 NSCLC) | TGI (CAKI-1 renal) | TGI (CCRF-CEM leukemia) | TGI (COLO 205 colon) | TGI (HCT-116 colon) | TGI (HCT-15 colon) | TGI (HL-60(TB) leukemia) | TGI (HOP-92 NSCLC) | TGI (HS 578T breast) | TGI (IGROV1 ovarian) | TGI (K-562 leukemia) | TGI (KM12 colon) | TGI (M14 melanoma) | TGI (MCF7 breast) | TGI (MDA-MB-435) | TGI (MOLT-4 leukemia) | TGI (NCI-H460 lung) | TGI (OVCAR-3 ovarian) | TGI (OVCAR-8 ovarian) | TGI (PC-3 prostate) | TGI (RPMI-8226 leukemia) | TGI (SF-268 CNS) | TGI (SF-295 CNS) | TGI (SK-MEL-2 melanoma) | TGI (SK-MEL-28 melanoma) | TGI (SK-MEL-5 melanoma) | TGI (SK-OV-3 ovarian) | TGI (SR leukemia) | TGI (SW-620 colon) | TGI (T-47D breast) | TGI (TK-10 renal) | TGI (UACC-257 melanoma) | TGI (UO-31 renal)
24.3 µM: TGI (UACC-62 melanoma)
38.6 µM: TGI (SNB-19 CNS)
36.6 µM: TGI (DU-145 prostate)
22.3 µM: TGI (SN12C renal)
